Test results reported in patent publication US8236810B2, “Substituted 8-aminoalkylthioxanthines, and their use as inhibitors of dipeptidyl peptidase IV” (Sanofi-Aventis Deutschland GmbH, priority 2004, dated 2012).
Structures can show the parent of a compound that is named as a salt.

Target: T1, DPP-IV from porcine kidney (Sus scrofa, UniProt P22411)
T1 construct: DPP-IV from porcine kidney (Sigma Chemical Co, Munich DE); purchased Sigma Chemical Co, Munich DE; host or cells: porcine kidney (tissue-derived)
T1 sequence (P22411 whole entry): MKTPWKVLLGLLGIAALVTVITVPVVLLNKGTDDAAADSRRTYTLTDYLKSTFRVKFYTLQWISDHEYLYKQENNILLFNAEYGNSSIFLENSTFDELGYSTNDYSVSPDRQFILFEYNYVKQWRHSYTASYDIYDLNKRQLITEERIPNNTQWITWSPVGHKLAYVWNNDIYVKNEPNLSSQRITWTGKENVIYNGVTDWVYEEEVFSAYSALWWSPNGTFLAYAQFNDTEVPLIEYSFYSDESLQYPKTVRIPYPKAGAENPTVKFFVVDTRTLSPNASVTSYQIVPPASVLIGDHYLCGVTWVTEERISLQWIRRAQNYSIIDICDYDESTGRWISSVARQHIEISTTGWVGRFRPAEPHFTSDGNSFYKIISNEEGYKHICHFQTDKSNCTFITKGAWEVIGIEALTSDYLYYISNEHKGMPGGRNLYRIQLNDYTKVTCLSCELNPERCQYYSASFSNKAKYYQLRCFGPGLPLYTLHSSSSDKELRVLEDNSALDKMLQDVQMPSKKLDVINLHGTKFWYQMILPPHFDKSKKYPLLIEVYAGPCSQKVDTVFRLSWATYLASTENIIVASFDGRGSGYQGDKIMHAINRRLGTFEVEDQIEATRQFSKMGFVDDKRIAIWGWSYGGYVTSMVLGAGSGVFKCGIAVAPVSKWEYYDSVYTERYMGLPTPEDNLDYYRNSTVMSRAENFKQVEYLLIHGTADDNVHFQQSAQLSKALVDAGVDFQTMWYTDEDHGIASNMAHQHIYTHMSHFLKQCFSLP
Experiment: Measurement of the DPP-IV activity (fluorimetric H-Ala-Pro-AFC conversion)
Format: biochemical
Conditions: substrate H-Ala-Pro-AFC 15 μM, DPP-IV 1 mU/ml, Tris/HCl pH 7.4, room temperature
Procedure: a) Measurement of the DPP-IV Activity:
DPP-IV from porcine kidney (Sigma Chemical Co, Munich DE)
H-Ala-Pro-AFC (Bachem Chemical Co, Weil am Rhein DE)
Dipeptidyl peptidase-IV (DPP-IV) (1 mU/ml, final concentration)
H-Ala-Pro-AFC (15 μM, final concentration) in Tris/HCl (40 mM, pH 7.4), total volume 0.2 ml
The reaction was carried out at room temperature for various times (typically 10 min) and stopped at the end of the reaction by adding 20 μl of ZnCl2(1M). The H-Ala-Pro-AFC conversion was determined fluorimetrically by measuring the emission at 535 nm after excitation at 405 nm. When inhibitors were added, the added buffer volume was adapted so that a total volume of 200 μl was maintained for the assay mixture.
IC50 values for inhibitors were determined by varying the inhibitor concentrations with the stated substrate concentration of 15 μM. Ki and Km values were found by appropriate variation of substrate concentration and inhibitor concentration as described (Dixon, M. and Webb, E. C.(1979) Enzymes, third edition, pp. 47-206, Academic Press). The values for Km, IC50 and Ki were calculated using a commercially available software package (Leatherbarrow, R. J. (1992) GraFit Version 3.0, Erithacus Software Ltd. Staines, U.K.).

| Compound | IC50 [nM] |
| --- | --- |
| CC(C)=CCn1c(SC(C)(C)CN)nc2c1c(=O)n(Cc1cc(C)on1)c(=O)n2C [Example 21, 8-(2-Amino-1,1-dimethylethylsulfanyl)-3-methyl-7-(3-methylbut-2-enyl)-1-(5-methylisoxazol-3-ylmethyl)-3,7-dihydropurine-2,6-dione hydrochloride] | 170 |
| CC(C)=CCn1c(SC(C)(C)CN)nc2c1c(=O)[nH]c(=O)n2C [Example 5, 8-(2-Amino-1,1-dimethylethylsulfanyl)-3-methyl-7-(3-methylbut-2-enyl)-3,7-dihydropurine-2,6-dione] | 84 |
| CC(C)=CCn1c(SC(C)(C)CN)nc2c1c(=O)n(Cc1nnc(C3CC3)s1)c(=O)n2C [Example 12, 8-(2-Amino-1,1-dimethylethylsulfanyl)-1-(5-cyclopropyl-[1,3,4]thiadiazol-2-ylmethyl)-3-methyl-7-(3-methylbut-2-enyl)-3,7-dihydropurine-2,6-dione] | 90 |
| CC(C)=CCn1c(SCC(C)(C)N)nc2c1c(=O)n(CC(=O)c1ccccc1)c(=O)n2C [Example 10, 8-(2-Amino-2-methylpropylsulfanyl)-3-methyl-7-(3-methylbut-2-enyl)-1-(2-oxo-2-phenylethyl)-3,7-dihydropurine-2,6-dione] | 120 |
| CC(C)=CCn1c(SC(C)(C)CN)nc2c1c(=O)n(CCc1ccccc1)c(=O)n2C1CC1 [Example 25, 8-(2-Amino-1,1-dimethylethylsulfanyl)-3-cyclopropyl-7-(3-methylbut-2-enyl) -1-phenethyl-3,7-dihydropurine-2,6-dione] | 48 |
| CC(C)=CCn1c(SC(C)(C)CN)nc2c1c(=O)n(CC(=O)c1ccccc1Cl)c(=O)n2C [Example 42, 8-(2-Amino-1,1-dimethylethylsulfanyl)-1-[2-(2-chlorophenyl)-2-oxoethyl]-3-methyl-7-(3-methylbut-2-enyl)-3,7-dihydropurine-2,6-dione] | 16 |
| CC(C)=CCn1c(SC(C)(C)CN)nc2c1c(=O)n(CC(=O)c1cccc(Cl)c1)c(=O)n2C [Example 43, 8-(2-Amino-1,1-dimethylethylsulfanyl)-1-[2-(3-chlorophenyl)-2-oxoethyl]-3-methyl-7-(3-methylbut-2-enyl)-3,7-dihydropurine-2,6-dione] | 30 |
| CC(C)=CCn1c(SC(C)(C)CN)nc2c1c(=O)n(CC(=O)c1ccccc1)c(=O)n2CC(F)(F)F [Example 36, 8-(2-Amino-1,1-dimethylethylsulfanyl)-7-(3-methylbut-2-enyl)-1-(2-oxo-2-phenylethyl)-3-(2,2,2-trifluoroethyl)-3,7-dihydropurine-2,6-dione] | 21 |
| CC(C)=CCn1c(SC(C)(C)CN)nc2c1c(=O)n(Cc1nc3cc(F)ccc3s1)c(=O)n2C [Example 19, 8-(2-Amino-1,1-dimethylethylsulfanyl)-1-(5-fluorobenzothiazol-2-ylmethyl) -3-methyl-7-(3-methylbut-2-enyl)-3,7-dihydropurine-2,6-dione] | 24 |
| CCn1c(=O)n(CC(=O)c2ccccc2)c(=O)c2c1nc(SC(C)(C)CN)n2CC=C(C)C [Example 23, 8-(2-Amino-1,1-dimethylethylsulfanyl)-3-ethyl-7-(3-methylbut-2-enyl)-1-(2-oxo-2-phenylethyl)-3,7-dihydropurine-2,6-dione] | 4.5 |
| CC(C)=CCn1c(SC(C)(C)CN)nc2c1c(=O)n(CC(=O)c1ccccc1)c(=O)n2C1CC1 [Example 24, 8-(2-Amino-1,1-dimethylethylsulfanyl)-3-cyclopropyl-7-(3-methylbut-2-enyl) -1-(2-oxo-2-phenylethyl)-3,7-dihydropurine-2,6-dione] | 9.4 |

Continued, values first:

| IC50 [nM] | Compound |
| --- | --- |
| 27 | CC#CCn1c(SC(C)(C)CN)nc2c1c(=O)n(CC(=O)c1ccccc1)c(=O)n2C [Example 26, 8-(2-Amino-1,1-dimethylethylsulfanyl)-7-but-2-ynyl-3-methyl-1-(2-oxo-2-phenylethyl)-3,7-dihydropurine-2,6-dione] |
| 1.7 | CC(C)=CCn1c(SC(C)(C)CN)nc2c1c(=O)n(CC(=O)c1ccccc1)c(=O)n2C [Example 1, 8-(2-Amino-1,1-dimethylethylsulfanyl)-3-methyl-7-(3-methylbut-2-enyl)-1-(2-oxo-2-phenylethyl)-3,7-dihydropurine-2,6-dione] |
| 7 | CC(C)=CCn1c(SC2(CN)CCCC2)nc2c1c(=O)n(CC(=O)c1ccccc1)c(=O)n2C [Example 64, 8-(1-Aminomethylcyclopentylsulfanyl)-3-methyl-7-(3-methylbut-2-enyl)-1-(2-oxo-2-phenylethyl)-3,7-dihydropurine-2,6-dione trifluoroacetate] |
| 72 | CC(C)=CCn1c(SCCN)nc2c1c(=O)n(CC(=O)c1ccccc1)c(=O)n2C [Example 3, 8-(2-Aminoethylsulfanyl)-3-methyl-7-(3-methylbut-2-enyl)-1-(2-oxo-2-phenylethyl)-3,7-dihydropurine-2,6-dione] |
| 14 | Cn1c(=O)n(CC(=O)c2ccccc2)c(=O)c2c1nc(SC1(CN)CCCC1)n2Cc1ccccc1 [Example 63, 8-(1-Aminomethylcyclopentylsulfanyl)-7-benzyl-3-methyl-1-(2-oxo-2-phenyl-ethyl)-3,7-dihydropurine-2,6-dione trifluoroacetate] |
